Data as given in paper PMC5723097, “Molecular and functional characterization of ferredoxin NADP(H) oxidoreductase from Gracilaria chilensis and its complex with ferredoxin” (Biological Research, 2017).

Tested on: T1, FNR^PBS (ferredoxin NADP(H) oxidoreductase)
T1 construct: gene petH; native enzyme in phycobilisome-enriched fraction; N-terminal peptides MAAVDKKK (1-8), VPINIFRPK (9-17); not recombinant
Assay: diaphorase assay, NADPH oxidation at […] nm, Michaelis-Menten fit
Type: biochemical, Gracilaria chilensis
Conditions: 0.15 mM DCPIP as acceptor, 50 mM Tris-HCl pH 8, 1 mM Na2EDTA; phycobilisome-enriched fraction, high salt

Km: 12.5 ± 1.8 µM
Compound: NC(=O)C1=CN([C@@H]2O[C@H](COP(=O)(O)OP(=O)(O)OC[C@H]3O[C@@H](n4cnc5c(N)ncnc54)[C@H](OP(=O)(O)O)[C@@H]3O)[C@@H](O)[C@H]2O)C=CC1 [NADPH]
